Assay results published in patent US8912150B2, “Ribosome structure and protein synthesis inhibitors” (Rib-X Pharmaceuticals, Inc., priority 2001, dated 2014).

Tests used:
ribosomes [1] = conditions: S. pneumoniae; cited from earlier work
[2] = molecular target: rabbit reticulocyte lysate; assay: Translation inhibition in rabbit reticulocyte lysate system (luciferase mRNA); assay type: biochemical
E. coli S30 extract = assay type: biochemical
ribosomes [3] = conditions: macrolide-poisoned ribosomes; cited from earlier work
[4] = tested on: ribosome peptidyl transferase; conditions: cited from earlier work

Molecule: CC[C@H]1OC(=O)[C@H](C)C(=O)[C@H](C)[C@@H](O[C@@H]2O[C@H](C)C[C@H](N(C)C)[C@H]2O)[C@](C)(OCC=Cc2cnc3ccccc3c2)C[C@@H](C)C(=O)[C@H](C)[C@H]2NC(=O)O[C@@]21C [ABT-773]
- ribosome binding relative to erythromycin (ribosomes [1]): binds ribosomes tighter than erythromycin

Molecule: COc1ccc(C[C@H]2NC[C@H](O)[C@H]2OC(C)=O)cc1 [anisomycin]
- IC50 [2]: 0.19 µM
- IC50 (E. coli S30 extract): > 100 µM

Molecule: CO[C@@H]1[C@@H](O[C@@H]2O[C@H](C)[C@@H](O[C@H]3C[C@@](C)(O)[C@@H](OC(=O)CC(C)C)[C@H](C)O3)[C@H](N(C)C)[C@H]2O)[C@@H](CC=O)C[C@@H](C)C(=O)/C=C/[C@@H]2O[C@H]2C[C@@H](C)OC(=O)C[C@H]1OC(C)=O [carbomycin A]
- length of oligopeptides synthesized in presence of macrolide (ribosomes [3]): strongly inhibits the formation of even the first peptide bond

Molecule: O=C(N[C@H](CO)[C@H](O)c1ccc([N+](=O)[O-])cc1)C(Cl)Cl [chloramphenicol]
- IC50 [2]: > 100 µM
- IC50 (E. coli S30 extract): 12.3 µM

Molecule: CC[C@H]1OC(=O)[C@H](C)[C@@H](O[C@H]2C[C@@](C)(OC)[C@@H](O)[C@H](C)O2)[C@H](C)[C@@H](O[C@@H]2O[C@H](C)C[C@H](N(C)C)[C@H]2O)[C@](C)(O)C[C@@H](C)C(=O)[C@H](C)[C@@H](O)[C@]1(C)O [erythromycin]
- length of oligopeptides synthesized in presence of macrolide (ribosomes [3]): permit the formation of tetrapeptides

Molecule: CC[C@H]1OC(=O)C[C@@H](O)[C@H](C)[C@@H](O[C@@H]2O[C@H](C)[C@@H](O[C@H]3C[C@@](C)(O)[C@@H](O)[C@H](C)O3)[C@H](N(C)C)[C@H]2O)[C@@H](CC=O)C[C@@H](C)C(=O)/C=C/C(C)=C/[C@@H]1CO[C@@H]1O[C@H](C)[C@@H](O)[C@@H](OC)[C@H]1OC [tylosin]
- length of oligopeptides synthesized in presence of macrolide (ribosomes [3]): allow formation of only dipeptides

Molecule: CCdA-phosphate-puromycin [CCdA-p-Puro]
- binding to the ribosome [4]: binds tightly to the ribosome
- inhibition of peptidyl transferase activity [4]: inhibits its peptidyl transferase activity

Molecule: spiramycin
- length of oligopeptides synthesized in presence of macrolide (ribosomes [3]): allow formation of only dipeptides
